From US10544113B2 (priority 2016, dated 2020)
“Also recorded” adds a separate entry of the source. Read-outs that look alike come from different tables or passages of the source.

Columns and labels:
B6 mice = assay: Tail-flick test; type: in vivo, mouse
Experimental: In an exemplary in vivo method, a test compound and a MOR antagonist are injected into a mouse pain model (for example, intravenous but not limited), basal latencies are recorded before the treatment and test latencies are recorded at various specified times after the injection, and a time-response curve is recorded and AUC values are calculated to determine whether an analgesic effect is exerted on the mouse. The test compound is confirmed to be an antagonist-to-agonist allosteric modifier of the MOR upon observation of an analgesic effect.
Male wild-type (WT) B6 mice (25-30 g) were kept in a temperature-controlled animal room with a 12-h light/dark cycle. The protocol has been approved by the Institutional Animal Care and Use Committee of the National Health Research Institutes, Taiwan. Animal experiments were carried out in accordance with the Policies on the Use of Animals in Neuroscience Research and the ethical guidelines for investigations of experimental pain in conscious animals, International Association for the Study of Pain. Tail-Flick Analgesia Meter (Columbia Instruments) was used to measure the tail-flick latencies of mice. The cut-off time for each measurement was 10 s to avoid tissue damage. Basal latencies were recorded before treatment and test latencies were recorded 30, 60, 90, 120 and 180 min after an intravenous injection of drugs. […] ED50 values were determined by the up-and-down method reported in Crocker et al., Pharmacol Biochem Behav, 1984, 21, 133-136.
An in vivo study, i.e., tail-flick test, was performed to investigate whether AAMs could change innate character of μ-opioid receptor in the presence of naloxone. […] In mice injected with naloxone (10 mg/kg; s.c.), the ED50 value of compound 58 in inhibition of the tail-flick response was determined to be 23.1±7.1 nmole.

mu-opioid receptor (MOR) = mu-opioid receptor (MOR) (Homo sapiens (Human), UniProt P35372); assay: cell-based
Chain of mu-opioid receptor (MOR) (P35372 whole entry): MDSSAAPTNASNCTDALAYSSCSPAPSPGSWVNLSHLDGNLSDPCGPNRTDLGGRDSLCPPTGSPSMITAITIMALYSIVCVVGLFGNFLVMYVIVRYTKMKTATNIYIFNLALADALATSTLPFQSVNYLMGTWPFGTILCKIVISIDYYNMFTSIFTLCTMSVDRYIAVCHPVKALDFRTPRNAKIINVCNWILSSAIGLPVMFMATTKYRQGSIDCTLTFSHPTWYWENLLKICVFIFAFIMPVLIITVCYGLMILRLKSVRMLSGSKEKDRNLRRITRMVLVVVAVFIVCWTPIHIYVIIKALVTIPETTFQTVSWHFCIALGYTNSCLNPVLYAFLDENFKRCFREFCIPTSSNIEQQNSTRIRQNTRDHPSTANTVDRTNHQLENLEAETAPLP

## Cc1cc(C(=O)O)ccc1N1C(=O)CSC1c1ccc(F)cc1 (centres unmarked)
B6 mice; 12.5 nmole i.t. with naloxone (10 mg/kg; s.c.)
  AUC of tail-flick inhibition: 241.5±111.3 min×s
B6 mice; 25 nmole i.t. with naloxone (10 mg/kg; s.c.)
  AUC of tail-flick inhibition: 560.6±96.5 min×s
B6 mice; 50 nmole i.t. with naloxone (10 mg/kg; s.c.)
  AUC of tail-flick inhibition: 649.8±123.3 min×s
B6 mice; B6 mice, 50, 25, 12.5 and 6.25 nmole i.t., no naloxone
  antinociceptive effect, compound alone: didn't exhibit any antinociceptive effects
B6 mice; mice injected with naloxone (10 mg/kg; s.c.), compound i.t.
  ED50 in inhibition of the tail-flick response: 23.1 ± 7.1 nmol
B6 mice; saline, highest dose 50 nmole i.t.
  antinociception effect in mice injected with saline: no antinociception effect was observed
mu-opioid receptor (MOR); co-administrated with naloxone (20 nM), read-out: EC50 of calcium release
  EC50: 1300 nM
mu-opioid receptor (MOR); combination with CTOP
  activity combined with peptide MOR antagonist CTOP: no activity was observed
mu-opioid receptor (MOR); combined with Cyprodime hydrochloride 500 nM
  AUC: 7893
mu-opioid receptor (MOR); combined with Cyprodime hydrochloride 500 nM, read-out: EC50
  EC50: 5120 ± 2520 nM
mu-opioid receptor (MOR); combined with Nalmefene 20 nM
  AUC: 8506
mu-opioid receptor (MOR); combined with Naloxonazine dihydrochloride 20 nM
  AUC: 11819.33
mu-opioid receptor (MOR); combined with Naloxonazine dihydrochloride 20 nM, read-out: EC50
  EC50: 642 nM
mu-opioid receptor (MOR); combined with Naltrexone 20 nM
  AUC: 12980.33
mu-opioid receptor (MOR); combined with Naltrexone 20 nM, read-out: EC50
  EC50: 630 ± 217 nM
mu-opioid receptor (MOR); combined with Samidorphan 10 nM
  AUC: 13179
mu-opioid receptor (MOR); combined with Samidorphan 10 nM, read-out: EC50
  EC50: 5530 nM
mu-opioid receptor (MOR); combined with Samidorphan 20 nM
  AUC: 14094
mu-opioid receptor (MOR); combined with Samidorphan 20 nM, read-out: EC50
  EC50: 5270 nM
mu-opioid receptor (MOR); combined with a MOR antagonist
  FLIPR Ca^2+ AUC: 16361
mu-opioid receptor (MOR); combined with a MOR antagonist, read-out: FLIPR Ca^2+ EC50
  EC50: 1100 nM
mu-opioid receptor (MOR); combined with naltrexone, compared with naloxone
  AAM effect with naltrexone: worked as an AAM of naltrexone, with similar potency but a higher magnitude of efficacy
mu-opioid receptor (MOR); combined with one of the listed opioid antagonists
  calcium release in the presence of an opioid antagonist: induced significant calcium release
mu-opioid receptor (MOR); combined with β-Funaltrexamine hydrochloride 20 nM
  AUC: 8553.5
mu-opioid receptor (MOR); combined with β-Funaltrexamine hydrochloride 20 nM, read-out: EC50
  EC50: 346 ± 209 nM
mu-opioid receptor (MOR); compound alone, no antagonist
  response on its own (calcium release): did not show responses on their own; also recorded: did not elicit any response on its own
mu-opioid receptor (MOR); morphine CRC with compound at 30, 10, 3.3 μM
  effect on Emax and potency of morphine (PAM/NAM test): neither Emax nor potency of morphine was significantly altered
mu-opioid receptor (MOR); naloxone (25 nM)
  calcium release in the presence of naloxone: induced a significant calcium release
mu-opioid receptor (MOR); naloxone CRC with compound at different concentrations
  effect on concentration-response curve of naloxone (Emax, potency): both Emax and potency of naloxone were altered
